In assay [1] the test system is normal human lung fibroblasts. Kind of assay: Procollagen Type 1 C-Peptide (PIPC) EIA in culture media of TGFβ-treated fibroblasts. Format: cell-based. To be noted: for % Renormalization Collagen: fibroblasts treated with TGFβ, procollagen ELISA. As for the experimental part:
(§1) Briefly, normal human lung fibroblasts (Lonza #CC-2512; cell passage numbers 2 through 5 were used for all experiments) were seeded (Day 0) and cultured in Dulbecco's modified Eagle medium (DMEM) supplemented with 10% fetal bovine serum (FBS), penicillin, streptomycin and glutamax (Invitrogen) at 37° C. in a humidified incubator with 5% CO2 overnight. On Day 1, cells were harvested, washed with phosphate buffered saline (PBS), and then incubated for 48 hours in fresh serum-free DMEM supplemented with penicillin, streptomycin, and glutamax.
(§2) After this 24 hour incubation, procollagen type 1 levels were measured by collecting culture media, centrifuging to pellet cellular debris, and stored at −80° C. Procollagen Type 1 C-Peptide (PIPC) was quantified using the (PIP) EIA kit (Clontech, Cat. No. MK101) according to manufacturer's instructions. The TGFβ-treated fibroblasts of this example were examined by ribosomal profiling (about 6×10^6 cells/10 cm plate) and western blot analysis (about 1×10^6 cells/well of a 6-well plate).
as §1, with “(Lonza;” for “(Lonza #CC-2512;”, “CO2 conditions” for “CO2”, “glutamax. On Day 3, cells were harvested, resuspended in fresh serum-free DMEM containing silvestrol (1, 5, 10, 75, 100, 500, or 1000 nM) and 10 ng/ml TGFβ, and cultured for 24 hours. Controls included untreated cells and cells treated with only TGFβ.” for “glutamax.”
(§3) After this 24 hour incubation, procollagen type 1 levels were measured by collecting culture media, centrifuging to pellet cellular debris, and stored at −80° C. Procollagen Type 1 C-Peptide (PIPC) was quantified using the (PIP) EIA kit (Clontech) according to manufacturer's instructions. The TGFβ-treated fibroblasts of this example are examined by ribosomal profiling (about 6×10^6 cells/10 cm plate) and western blot analysis (about 1×10^6 cells/well of a 6-well plate).
The levels of α-SMA and procollagen type 1, markers of fibroblast transdifferentiation into myofibroblasts and a surrogate for fibrotic disease progression, were measured after a 24 hour incubation of fibroblasts in the presence or absence of TGFβ sieIF4A1 or siCont. The knockdown efficiency was determined by quantitating the eIF4A mRNA level by qPCR (data not shown) and assessing the protein level by western analysis (see FIG. 11).

The test system of assay [2] is normal human lung fibroblasts. Description: Western blot of α-smooth muscle actin (α-SMA) in TGFβ-treated fibroblasts. Format: cell-based. To be noted: for TGFβ-induced α-SMA protein level / % Renormalization α-SMA: western blot; for % Renormalization α-SMA: fibroblasts treated with TGFβ. As for the experimental part:
as §1, §2
(§4) TGFβ-dependent activation of the PI3K/Akt/mTOR and ERK pathways were also examined by western blot analysis (about 1×10^6 cells/well from a 6-well plate). Briefly, cells were washed with PBS and lysed in 1× cell lysis buffer (Cell Signaling Technology, Inc., Danvers, Mass.) for 15 minutes at 4° C. Lysates were briefly sonicated, clarified by centrifugation for 15 minutes at 14,000 rpm, and then supernatants were collected. Protein concentration in the soluble fraction was determined by BCA protein assay (Thermo Scientific, Rockford, Ill.). Samples of protein (20 μg) were resolved on 4-20% Bis-Tris gradient gel (Invitrogen, Carlsbad, Calif.) and transferred to nitrocellulose membrane. The resulting blots were blocked for 1 hour at room temperature with Odyssey blocking solution (LI-COR) and then incubated with primary antibodies at 4° C. overnight. The following day, each blot was washed three times for 10 minutes in TBST, and then incubated with goat anti-rabbit fluorescent conjugated secondary antibody (IRDye 800 CW at 1:20,000; LI-COR) for 1 hour at room temperature. The blots were washed and scanned, and then specific proteins were detected by using the LI-COR Odyssey infrared imager. The following antibodies were used at 1:1000 dilution: anti-α-actin (Sigma #A2547), anti-phospho-4EBP(Ser65), anti-phospho-rpS6(Ser235/236)(#4858), anti-phospho-ERK1/2(Thr202/Tyr204)(#4370), anti-phospho-p70S6K(Thr421/Ser424)(#9204), anti-phospho-pAKT(Ser473), anti-phospho-MNK(Thr197/202), and anti-β-actin (#4970). Unless otherwise indicated, the antibodies were from Cell Signaling Technology, Inc. (Danvers, Mass.).
as §1, with “(Lonza;” for “(Lonza #CC-2512;”, “CO2 conditions” for “CO2”, “glutamax. On Day 3, cells were harvested, resuspended in fresh serum-free DMEM containing silvestrol (1, 5, 10, 75, 100, 500, or 1000 nM) and 10 ng/ml TGFβ, and cultured for 24 hours. Controls included untreated cells and cells treated with only TGFβ.” for “glutamax.”
as §3

Assay [3] has as its system AKT, 4EBP, S6K, and S6 of the mTOR pathway. Kind of assay: Western blot of TGFβ-dependent phosphorylation of PI3K/Akt/mTOR and ERK pathway proteins. Format: cell-based, human. To be noted: PP242 0.625 μM, co-incubation with TGFβ, FIG. 2. On the procedure:
as §4, with “The following antibodies were used at 1:1000 dilution: anti-α-actin (Sigma #A2547), anti-phospho-4EBP(Ser65), anti-phospho-rpS6(Ser235/236)(#4858), anti-phospho-ERK1/2(Thr202/Tyr204)(#4370), anti-phospho-p70S6K(Thr421/Ser424)(#9204), anti-phospho-pAKT(Ser473), anti-phospho-MNK(Thr197/202), and anti-β-actin (#4970). Unless otherwise indicated, the antibodies were from Cell Signaling Technology, Inc. (Danvers, Mass.).” left out
On the technique in general: Immunoblotting shows a protein as a band on a membrane.

pEC50: −log10 of the molar value.

In the case of `COC(=O)[C@H]1[C@@H](O)[C@@]2(O)c3c(OC)cc(O[C@@H]4O[C@@H]([C@H](O)CO)CO[C@H]4OC)cc3O[C@@]2(c2ccc(OC)cc2)[C@@H]1c1ccccc1` [Silvestrol], the pEC50 in assay [1] (Homo sapiens, Fibroblast, 24 h, read-out: EC50 for blocking the TGFβ-induced increase in procollagen production) was about 7.92; in assay [2] (Homo sapiens, Fibroblast, 24 h, read-out: EC50 for reduction of the α-SMA protein level) it was about 7.96. Moreover, the “% Renormalization Collagen” value in assay [1] (24 hours) is “+++ (+++ = >60%)”. Further, the “extent of inhibition of procollagen at higher concentrations, of untreated TGFβ-transformed myofibroblasts” value in assay [1] (higher concentrations, saturable, 10 ng/ml TGFβ, 24 hours) is reported as “about 90%”. Moreover, the “inhibition of procollagen relative to untreated, untransformed control fibroblasts” value in assay [1] (higher concentrations, 10 ng/ml TGFβ, 24 hours) is “about 80%”. In addition, the “ratio of α-SMA to β-actin at higher silvestrol concentrations” value in assay [2] (10 ng/ml TGFβ, 24 hours, FIG. 10) is given as “the same as in untransformed, untreated fibroblasts”. The “TGFβ-induced α-SMA protein level” value in assay [2] (10 ng/ml TGFβ, 24 hours) was “reduction of the α-SMA protein level in a dose dependent manner”. Besides, the “% Renormalization α-SMA” value in assay [2] (24 hours) is “+++ (+++ = >60%)”.

For the compound `Cc1cc(C2CCCCC2)n(O)c(=O)c1.NCCO` [CPX, ciclopirox oloamine], in assay [1] (24 hours), the “% Renormalization Collagen” value was “+++ (+++ = >60%)”. The “% Renormalization α-SMA” value in assay [2] (24 hours) was “+++ (+++ = >60%)”.

As to `Cc1ccc(=O)n(-c2ccccc2)c1` [pirfenidone, 5-methyl-1-phenylpyridin-2-one], the “% Renormalization Collagen” value in assay [1] (24 hours) is “+++ (+++ = >60%)”. For the same compound, the “% Renormalization α-SMA” value in assay [2] (24 hours) is given as “+++ (+++ = >60%)”.

In the case of `CC(C)n1nc(-c2cc3cc(O)ccc3[nH]2)c2c(N)ncnc21` [PP242], the “% Renormalization Collagen” value in assay [1] (24 hours) is “+++ (+++ = >60%)”. Moreover, the “TGFβ-induced α-SMA protein level” value in assay [2] (10 ng/ml TGFβ, 24 hours) is given as “reduction of the α-SMA protein level in a dose dependent manner”. The α-SMA level entry in assay [2] (PP242 0.625 μM, co-incubation with TGFβ, FIG. 2) is on record as “decrease in α-SMA to pretreatment levels”. Further, the “% Renormalization α-SMA” value in assay [2] (24 hours) is reported as “+++ (+++ = >60%)”. For the same compound, the “TGFβ-dependent increases in phosphorylation of AKT, 4EBP, S6K, and S6” value in assay [3] is “sufficient to abolish”.

Take `CC(C=CC(=O)NO)=CC(C)C(=O)c1ccc(N(C)C)cc1` (stereo not shown) [TSA, 7-[4-(dimethylamino)phenyl]-N-hydroxy-4,6-dimethyl-7-oxohepta-2,4-dienamide]: the “% Renormalization Collagen” value in assay [1] (24 hours) is “+++ (+++ = >60%)”. In addition, in assay [2] (24 hours), the “% Renormalization α-SMA” value is listed as “++ (++ = 30-60%)”.

By pEC50 is commonly meant the EC50 on a negative log10 scale, so that one unit is a factor of ten.

Values taken from patent US9993494B2, “Compositions and methods for treating fibrotic disease” (eFFECTOR Therapeutics, Inc., priority 2014, dated 2018).
